Assay results from US9611284B2, “Prostaglandin-bisphosphonate conjugate compounds, methods of making same, and uses thereof” (Simon Fraser University, priority 2010, dated 2017).

Tests used:
[1] = Chemical stability of conjugate 8 in 0.1 N NaOH; format: physicochemical; conditions: room temperature, 24 hours
[2] = Uptake and release of radiolabelled conjugate 8, tritium levels in long bones; format: in vivo, female Sprauge-Dawley rats; conditions: rat, 5 mg/kg intravenous
Description: Uptake and Release of Conjugate 8: A solution was prepared of carbamate conjugate 8 (specific activity=15.4 mCi/mmol) in PBS. The conjugate was administered intravenously to female Sprauge-Dawley rats at 5 mg/kg. Triplicate sets of rats were euthanized at 1, 7, 14 and 28 days and tritium levels in bone were measured by incineration of the long bones in a biological oxidizer. After an initial 1 day uptake of 9.4%, 5.6% of the initial dose remained after 14 days.

- hydrolysis of the carbamate coupling [1]: not hydrolyzed
- hydrolysis of the ethyl ester [1]: essentially quantitatively
- % of Initial 3H Dose Remaining ([2]; 1 day): 9.4%
- % of Initial 3H Dose Remaining ([2]; 7 days): 8.0%
- % of Initial 3H Dose Remaining ([2]; 14 days, 5 mg/kg): 6.2%
- % of Initial 3H Dose Remaining ([2]; 28 days): 5.6%
Compound: CCOC(=O)CCCCCCN1C(=O)CC[C@@H]1/C=C/[C@@H](OC(=O)NCCCC(O)(P(=O)(O)O)P(=O)(O)O)C(F)(F)c1ccccc1 [Conjugate 8]
